In data set [1] the target is receptors (Bioprint panel). The experiment in a line: biochemical. Type of data set: binding. Conditions: read-out: Reference Compound IC50.
Data set [2] concerns human pancreatic carcinoma MIA PaCa-2. As to conditions: 80 mg/kg Q4D x 4 IP.
The target in another data set is T1, SP140 (h) bromodomain (Homo sapiens, UniProt Q13342).
T1 construct: SP140 (h) bromodomain
In words: Epigenetic binding assay, Bromodomain.

For another data set, the target named is T2, ATAD2A (h) bromodomain (Homo sapiens, UniProt Q6PL18).
T2 construct: Bromodomain
T2 sequence (Q6PL18 980-1092 limits assumed): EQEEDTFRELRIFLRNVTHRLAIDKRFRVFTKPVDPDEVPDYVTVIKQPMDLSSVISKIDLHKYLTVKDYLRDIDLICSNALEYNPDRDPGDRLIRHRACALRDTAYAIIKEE
In words: Epigenetic binding assay, Bromodomain. Conditions: Table 9, inhibition/concentration-response curve; read-out: IC50.

The test system of the next data set is CCD 841 CoN. In words: OncoPanel normal cell proliferation assay (3-day). It is filed as cell-based. Conditions: Homo sapiens, 72 h, colon epithelial, 3-day incubation; for GI50: read-out: Cell Count GI50; for pEC50: read-out: Cell Count EC50; for pIC50: read-out: Cell Count IC50.
Another data set deals with HMEC. In words: OncoPanel normal cell proliferation assay (3-day). Type of data set: cell-based. As to conditions: Homo sapiens, 72 h, HMEC, mammary epithelial, 3-day incubation; for pEC50: read-out: Cell Count EC50; for GI50: read-out: Cell Count GI50; for pIC50: read-out: Cell Count IC50.
The next data set deals with HREC. The experiment in a line: OncoPanel normal cell proliferation assay (3-day). It is filed as cell-based. Conditions: 72 h, renal mixed epithelial, 3-day incubation; for GI50: read-out: Cell Count GI50; for pEC50: read-out: Cell Count EC50; for pIC50: read-out: Cell Count IC50.
The test system of the next data set is Wi38. The experiment in a line: OncoPanel normal cell proliferation assay (3-day). It is filed as cell-based. Conditions: Homo sapiens, WI-38, 72 h, Wi38, lung fibroblast, 3-day incubation; for pEC50: read-out: Cell Count EC50; for GI50: read-out: Cell Count GI50; for pIC50: read-out: Cell Count IC50.
The target of a further data set is T3, BRPF1-1 (h) bromodomain (Homo sapiens, UniProt P55201).
T3 construct: Bromodomain
T3 sequence (P55201 628-732 limits assumed): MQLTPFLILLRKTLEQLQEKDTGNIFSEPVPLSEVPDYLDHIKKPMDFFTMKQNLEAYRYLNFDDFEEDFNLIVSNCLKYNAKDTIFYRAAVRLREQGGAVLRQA
The experiment in a line: Epigenetic binding assay, Bromodomain. Conditions: Table 4; read-out: Reference IC50.

The format of data set [3] is in vivo, female NOD/SCID mice. Conditions: Study 1, IP, 35 mg/kg. On the procedure:
Two studies were conducted by Eurofins Panlabs Taiwan, Ltd. The purpose of Study 1 was to assess the possible adverse effects of Compound 1 alone or in combination with […] in Maximum Tolerated Dose (MTD) assay. The purpose of Study 2 is a follow-up study performed at escalating doses.
Compound 1 was dissolved in 10% Tween 20/90% PBS or 20% Tween 20/80% PBS for IP injections. Compound 1 was administrated alone or in combination with […] at a dosing volume of 10 or 20 mL/kg for each substance.
For mortality, test substance (Compound 1; 100 mg/kg) alone or in combination with […] (8.75, 17.5, or 35 mg/kg; given on the same day) was administered to mice by IP injection to evaluate the possible adverse effects in MTD assay. […]. […]
A follow-up MTD study was performed to evaluate for the adverse effects of the test substance (Compound 1) at escalating doses alone or in combination with […] (17.5 mg/kg) via IP in a group of 3 female NOD/SCID mice at 6-7 weeks of age.
For mortality, treatment with Compound 1 at escalating doses (200 mg/kg) alone and in combination with […] (17.5 mg/kg; given on the same day) were administered by IP injection to a group of 3 female NOD/SCID mice at 6-7 weeks of age. The mortality was monitored at 30 min and again at 3, 24, 48 and 72 hours after compound administrations.
For body weight, test substance (Compound 1) at escalating doses (200 mg/kg) alone or in combination with […] (17.5 mg/kg; given on the same day) were administered by IP injection to a group of 3 female NOD/SCID mice at 6-7 weeks of age. The body weight of each animal was measured and recorded daily for 3 days.
For behavioral, symptomatic i.e. neurological and autonomic signs, test substance (Compound 1; 200 mg/kg) alone or in combination with […] (17.5 mg/kg; given on the same day) were administered by IP injection to a group of 3 female NOD/SCID mice at 6-7 weeks of age. The animals were then observed for presences of acute toxic symptoms and autonomic effects for 30 min after the first dose.

The target of the next data set is T4, PHIP(2) (h) bromodomain (Homo sapiens, UniProt Q8WWQ0).
T4 construct: Bromodomain
In words: Epigenetic binding assay, Bromodomain. Conditions: Table 4; read-out: Reference IC50.

pEC50, pIC50: −log10 of the molar value. Read-outs that look alike come from different tables or passages of the source. Where only a bound is given, the exact number is not on record here.

T1 sequence (Q13342 754-857 limits assumed): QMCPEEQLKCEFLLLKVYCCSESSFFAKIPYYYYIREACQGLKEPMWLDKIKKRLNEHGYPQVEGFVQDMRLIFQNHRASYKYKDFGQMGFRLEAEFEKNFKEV

In general, pIC50 refers to −log10 of the IC50, conventionally taken in molar units. With glucagon, the pIC50 in [1] (glucagon (h) (agonist radioligand)) was 9.00.

On to `C=C(C)[C@H]1CN[C@H](C(=O)O)[C@H]1CC(=O)O` [kainic acid], for which the pIC50 in data set [1] was 7.64.

Consider omega -conotoxin GVIA, for which the pIC50 in data set [1] was 11.77.

As for `Nc1ccn([C@@H]2O[C@H](CO)[C@@H](O)C2(F)F)c(=O)n1` [Gemcitabine, reference compound], the “% T/C” value is 99% in data set [2] (Day 1); 100% in data set [2] (Day 4); 81% in [2] (Day 8); 70% in [2] (Day 11); 55% in [2] (Day 15). Besides, the “% TGI” value stood at 1% in [2] (Day 1); 0% in data set [2] (Day 4); 19% in [2] (Day 8); 30% in [2] (Day 11); 45% in [2] (Day 15). For the same compound, the “Tumor Volume, Mean” value is reported as 89 mm3 in [2] (Day 1); 94 mm3 in data set [2] (Day 4); 107 mm3 in [2] (Day 8); 139 mm3 in [2] (Day 11); 207 mm3 in data set [2] (Day 15).

On to `CCCCC[C@H](O)/C=C/[C@@H]1[C@@H](C/C=C\CCCC(=O)O)[C@@H](O)C[C@H]1O` [PGF2alpha], for which the pIC50 in data set [1] ([…] (h) (agonist radioligand)) is 8.52.

Regarding `C[C@]12N[C@H](Cc3ccccc31)c1ccccc12` [MK 801], in data set [1] (GLUTAMATE CHANNELS PCP (antagonist radioligand)), the pIC50 is 8.02.

`CN1C(=O)CN=C(c2ccccc2)c2cc(Cl)ccc21` [diazepam]: the negative-log IC50 (pIC50) in data set [1] is 8.03.

For the compound `C=C(C)[C@@H]1[C@H]2OC(=O)[C@@H]1[C@]1(O)C[C@H]3O[C@]34C(=O)O[C@H]2[C@]14C` [picrotoxinin], the pIC50 in data set [1] (Cl- channel (GABA-gated) (antagonist radioligand)) was 6.48.

For `Cc1cc(/N=N/c2cc(S(=O)(=O)O)c(C)cc2C)c(N)cc1O` [Ischemin, reference compound], the pIC50 was 4.07 at SP140 (h) bromodomain (Table 4, read-out: Reference IC50); 4.96 at SP140 (h) bromodomain (Table 9, inhibition/concentration-response curve, read-out: IC50); 5.28 on ATAD2A (h) bromodomain.

Broadly, the GI50 is the concentration at which growth is held to half of that of the control. As a reminder, the pEC50 is −log10 of the EC50, conventionally taken in molar units. Regarding `CN[C@@H]1C[C@H]2O[C@@](C)([C@@H]1OC)n1c3ccccc3c3c4c(c5c6ccccc6n2c5c31)C(=O)NC4` [Staurosporine], the 50% growth inhibitory concentration (GI50) in the data set with CCD 841 CoN turned out to be 0.19 nM; in the data set with HMEC, 0.91 nM; with HREC it was 0.5 nM; in the data set with Wi38, 0.33 nM. Also, the pEC50 in the data set with HMEC is 8.64; in the data set on Wi38, 9.31.

Regarding alpha -bungarotoxin, in data set [1], the pIC50 was 8.72.

NPY: in [1] (NE[…] Y1 (h) (agonist radioligand)), the pIC50 was 9.80.

In the case of `CCOC(=O)Nc1cc(-c2ccc(C)c(NS(C)(=O)=O)c2)nn2c(C)nnc12` [Bromosporine, reference compound], at BRPF1-1 (h) bromodomain, the pIC50 was 7.59.

For the compound `C[C@@H]1C[C@@H]([C@H](O)CC2CC(=O)NC(=O)C2)C(=O)[C@@H](C)C1` [cycloheximide, reference compound], the pEC50 in the data set on CCD 841 CoN was 6.30; in the data set on HMEC, 5.44; in the data set on HREC, 6.93; with Wi38 it was 6.55. The GI50 with CCD 841 CoN came to 588 nM; in the data set with HMEC, 306 nM; in the data set on HREC, 36.9 nM; with Wi38, 369 nM. For the same compound, the pIC50 in the data set with CCD 841 CoN is 5.56; in the data set on HMEC, 5.00; with HREC, 6.23; in the data set on Wi38 it was 6.06.

Take `N[C@@H](CCC(=O)O)C(=O)O` [L-glutamate]: in data set [1] (GLUTAMATE CHANNELS AMPA (agonist radioligand)), the pIC50 is 6.43.

On to `COc1ccc([C@@H]2Sc3ccccc3N(CCN(C)C)C(=O)[C@@H]2OC(C)=O)cc1` [diltiazem], for which the pIC50 in data set [1] (Ca2+ channel (L, diltiazem site) (benzothiazepines) (antagonist radioligand)) is 7.24.

For TNF-alpha, the pIC50 in data set [1] (CYTOKINES TNF-alpha (h) (agonist radioligand)) was 9.80.

For the compound `CCCCCCCCCCCCCCCCOC[C@H](COP(=O)([O-])OCC[N+](C)(C)C)OC(C)=O` [Compound C16-PAF], the negative-log IC50 (pIC50) in [1] (PLATELET ACTIVATED FACTOR PAF (h) (agonist radioligand)) was 8.47.

For the compound `C[C@H](NC[C@H](O)CP(=O)(O)CC1CCCCC1)c1ccc(Cl)c(Cl)c1` [CGP 54626], the negative logarithm of the IC50 (pIC50) in data set [1] (GABA GABAB(1b) (h) (antagonist radioligand)) is 8.66.

For the compound `N#CC(C#N)=NNc1cccc(Cl)c1` [Carbonyl cyanide 3-chlorophenylhydrazone], the pEC50 in the data set on CCD 841 CoN is 5.00; in the data set with HMEC it was less than 5.00; in the data set on HREC, 6.26; in the data set on Wi38 it was 5.05. Also, the GI50 in the data set with CCD 841 CoN is 6210 nM; in the data set on HMEC it was 175 nM; in the data set with HREC, 308 nM; with Wi38, 6150 nM. Moreover, the pIC50 in the data set with CCD 841 CoN was 5.00; in the data set on HMEC it was less than 5.00; in the data set with HREC, 5.82; in the data set on Wi38 it was 5.05.

In the case of “[Nleu13]-motilin (FVPIFTYGELQRLQEKERNKGQ; Motilin norleucine at 13; UniProt P12872 26-47, looked up, variant M13L)”, the pIC50 in [1] (motilin(h) (agonist radioligand)) is 9.05.

On to carboplatin [reference compound], for which the “Response (death/test)” value in data set [3] (30 min), in [3] (3 hrs), in data set [3] (Day 1), in data set [3] (Day 2) and in data set [3] (Day 3) was 0/3 each time.

For `COc1ccc(CCc2nc3cc(-c4c(C)noc4C)ccc3n2C[C@H](C)N2CCOCC2)cc1Cl` [SGC-CBP30, reference compound], the negative-log IC50 (pIC50) at PHIP(2) (h) bromodomain was 6.89.

The values above are taken from patent US11331299B2, “Medicinal use of serrulatane diterpenes” (The University of Sydney, priority 2016, dated 2022).
